Assays:
[1] = target: NR1/NR2B (Homo sapiens (Human), UniProt Q05586+Q13224); experiment: Cell assay: FDSS Ca2+ influx inhibition in HEK293 cells expressing NR1/NR2B; details: Binned Activity, HEK293 cells expressing NR1/NR2B, Ca2+ influx; binned NR2B NAM IC50;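 further: Fluo-8 Ca2+ signal read on Hamamatsu FDSS 6000 after glutamate, glycine and Ca2+ challenge following 10 min compound preincubation, end/baseline fluorescence ratio compared with MK801 control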
[2] = target: NR1/NR2B (Homo sapiens (Human), UniProt Q13224); experiment: as above; details: read-out: NR2B NAM IC50; HEK293 cells expressing NR1/NR2B, Ca2+ influx
Chain of NR1/NR2B (Homo sapiens (Human), UniProt Q13224) (Q13224 27-1484, other chains not shown): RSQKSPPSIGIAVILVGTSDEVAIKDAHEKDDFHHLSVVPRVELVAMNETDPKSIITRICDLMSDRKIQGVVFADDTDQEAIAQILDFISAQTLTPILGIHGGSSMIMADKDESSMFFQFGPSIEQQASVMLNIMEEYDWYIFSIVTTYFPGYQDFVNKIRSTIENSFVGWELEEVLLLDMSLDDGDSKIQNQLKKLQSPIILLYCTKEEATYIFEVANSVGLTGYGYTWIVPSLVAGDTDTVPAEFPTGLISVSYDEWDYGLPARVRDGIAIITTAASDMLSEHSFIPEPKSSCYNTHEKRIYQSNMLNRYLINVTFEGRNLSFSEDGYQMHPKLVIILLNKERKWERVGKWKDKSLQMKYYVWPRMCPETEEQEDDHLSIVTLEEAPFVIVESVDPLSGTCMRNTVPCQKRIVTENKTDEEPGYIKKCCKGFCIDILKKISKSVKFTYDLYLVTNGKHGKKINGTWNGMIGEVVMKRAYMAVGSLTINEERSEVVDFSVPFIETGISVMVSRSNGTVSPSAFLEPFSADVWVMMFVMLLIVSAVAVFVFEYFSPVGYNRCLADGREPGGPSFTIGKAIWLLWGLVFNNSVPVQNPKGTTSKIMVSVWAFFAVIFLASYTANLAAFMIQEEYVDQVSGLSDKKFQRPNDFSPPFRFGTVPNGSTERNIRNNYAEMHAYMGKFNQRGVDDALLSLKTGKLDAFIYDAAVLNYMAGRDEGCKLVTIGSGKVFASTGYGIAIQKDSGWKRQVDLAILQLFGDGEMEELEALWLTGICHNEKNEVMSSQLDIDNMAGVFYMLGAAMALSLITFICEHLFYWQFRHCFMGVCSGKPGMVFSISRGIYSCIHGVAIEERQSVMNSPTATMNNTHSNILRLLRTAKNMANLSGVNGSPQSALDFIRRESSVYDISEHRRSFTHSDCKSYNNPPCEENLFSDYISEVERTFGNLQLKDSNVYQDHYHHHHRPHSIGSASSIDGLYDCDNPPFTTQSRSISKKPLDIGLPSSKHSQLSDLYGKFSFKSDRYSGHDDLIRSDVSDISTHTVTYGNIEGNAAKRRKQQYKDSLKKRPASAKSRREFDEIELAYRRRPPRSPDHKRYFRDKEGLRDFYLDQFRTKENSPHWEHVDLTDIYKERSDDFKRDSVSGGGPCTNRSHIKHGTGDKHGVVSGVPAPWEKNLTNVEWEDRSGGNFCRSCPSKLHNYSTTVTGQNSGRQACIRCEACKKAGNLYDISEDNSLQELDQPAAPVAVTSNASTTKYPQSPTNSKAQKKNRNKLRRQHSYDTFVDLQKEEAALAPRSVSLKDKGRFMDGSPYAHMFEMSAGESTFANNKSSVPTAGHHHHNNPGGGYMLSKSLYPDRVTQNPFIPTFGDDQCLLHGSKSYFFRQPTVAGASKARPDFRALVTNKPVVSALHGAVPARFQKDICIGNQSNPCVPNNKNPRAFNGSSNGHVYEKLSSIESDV

Chain of NR1/NR2B (Homo sapiens (Human), UniProt Q05586+Q13224) (Q13224 27-1484, other chains not shown): as above

| SMILES | IC50 [1] [µM] | IC50 [2] [µM] |
| --- | --- | --- |
| O=C(CN1C[C@@H]2C[C@@](O)(c3cccnc3F)C[C@@H]2C1)c1ccc(O)cn1 [Example 244, 2-((3aR,6aS)-5-(2-fluoropyridin-3-yl)-5-hydroxyhexahydrocyclo-penta[c]pyrrol-2(1H)-yl)-1-(5-hydroxypyridin-2-yl)ethanone] | > 10 | 10 |
| COc1ccccc1NC(=O)N1C[C@@H]2C[C@@](O)(Cc3ccccc3)C[C@@H]2C1 [Example 128, (3aR,5r,6aS)-5-benzyl-5-hydroxy-N-(2-meth-oxyphenyl)hexahydro-cyclopenta[c]pyrrole-2(1H)-carboxamide] | > 10 | 10 |
| Oc1ccc([C@@H](O)CN2C[C@@H]3C[C@@](O)(Cc4ccccc4)C[C@@H]3C2)nc1 [Example 1646, (3aR,5S,6aS)-5-benzyl-2-((S)-2-hydroxy-2-(5-hydroxypyridin-2-yl)ethyl)octahydrocyclo-penta[c]pyrrol-5-ol] | < 0.1 | 0.0381 |
| O=C1CCc2cc(C(=O)CN3C[C@@H]4C[C@@](O)(Cc5ccccc5)C[C@@H]4C3)ccc2N1 [Example 148, 6-(2-((3aR,5r,6aS)-5-benzyl-5-hydroxyhexahydrocyclo-penta[c]pyrrol-2(1H)-yl)acetyl)-3,4-dihydroquinolin-2(1H)-one] | 0.1 to 1 | 0.137 |
| O=C(CN1C[C@@H]2C[C@](O)(Cc3ccccc3)C[C@@H]2C1)c1ccc(O)cc1 [Example 290, 2-((3aR,5r,6aS)-5-benzyl-5-hydroxyhexahydrocyclo-penta[c]pyrrol-2(1H)-yl)-1-(4-hydroxyphenyl)ethanone] | < 0.1 | 0.0766 |
| Cc1cccc(-c2ccc(C(=O)CN3C[C@@H]4C[C@@](O)(CCc5ccccc5)C[C@@H]4C3)cc2)c1 [Example 277] | > 10 | 10 |
| CS(=O)(=O)Nc1ccc(C(=O)CN2C[C@@H]3C[C@@](O)(Cc4ccccc4)C[C@@H]3C2)cc1 [Example 146, N-(4-(2-((3aR,5r,6aS)-5-benzyl-5-hydroxyhexahydrocyclo-penta[c]pyrrol-2(1H)-yl)acetyl)phenyl)methane-sulfonamide] | 0.1 to 1 | 0.326 |
| COc1cccc(NC(=O)N2C[C@H]3CC(Cc4ccccc4)C[C@H]3C2)c1 (stereo partly drawn) [Example 294, (3aR,6aS)-5-benzyl-N-(3-methoxyphenyl) hexahydro-cylcopenta[c]pyrrole-2(1H)-carboxamide] | > 10 | 10 |
| Cc1cc(F)ccc1C[C@]1(O)C[C@H]2CN(CC(=O)c3ccc(O)cc3)C[C@H]2C1 [Example 250, 2-((3aR,5r,6aS)-5-(4-fluoro-2-methylbenzyl)-5-hydroxyhexahydrocyclo-penta[c]pyrrol-2(1H)-yl)-1-(4-hydroxyphenyl)ethanone] | 0.1 to 1 | 0.137 |
| Cc1cc(C)cc(C[C@]2(O)C[C@H]3CN(CC(=O)c4ccc(O)cc4)C[C@H]3C2)c1 [Example 212, 2-[(3aR,5R,6aS)-5-[(3,5-dimethylphenyl)methyl]-5-hydroxy-octahydrocyclopenta[c]pyrrol-2-yl]-1-(4-hydroxyphenyl)ethan-1-one] | > 10 | 10 |
| CC(C)(C)c1ccc([C@]2(O)C[C@H]3CN(C(=O)Nc4ccc(Cl)c(C(F)(F)F)c4)C[C@H]3C2)cc1 [Example 53] | > 10 | 10 |
| O=C(CN1C[C@@H]2C[C@](F)(Cc3ccccc3)C[C@@H]2C1)c1ccc(O)cc1 [Example 310, 2-((3aR,5s,6aS)-5-benzyl-5-fluorohexahydrocyclo-penta[c]pyrrol-2(1H)-yl)-1-(4-hydroxyphenyl)ethanone] | 0.1 to 1 | 0.175 |
| COc1cccc(NC(=O)N2C[C@@H]3C[C@@](O)(Cc4ccccc4)C[C@@H]3C2)c1 [Example 119, (3aR,5r,6aS)-5-benzyl-5-hydroxy-N-(3-methoxy-phenyl)hexahydro-cyclopenta[c]pyrrole-2(1H)-carboxamide] | > 10 | 10 |
| O=C(CN1C[C@@H]2C[C@@](O)(CC3CCCCC3)C[C@@H]2C1)c1ccc(O)cn1 [Example 206, 2-[(3aR,5R,6aS)-5-(cyclohexylmethyl)-5-hydroxy-octahydrocyclopenta[c]pyrrol-2-yl]-1-(5-hydroxypyridin-2-yl)ethan-1-one] | > 10 | 10 |
| O=C(CN1C[C@@H]2C[C@@](O)(Cc3ccccc3)C[C@@H]2C1)c1ccc(O)nc1 [Example 178, 2-[(3aR,5R,6aS)-5-benzyl-5-hydroxy-octahydrocyclopenta[c]pyrrol-2-yl]-1-(6-hydroxypyridin-3-yl)ethan-1-one] | > 10 | 10 |
| Cc1ccc(NC(=O)N2C[C@@H]3C[C@@](O)(c4ccc(F)cc4)C[C@@H]3C2)cc1 [Example 36, 5-(4-fluorophenyl)-5-hydroxy-N-(4-methylphenyl)-octahydrocyclopenta[c] pyrrole-2-carboxamide] | > 10 | 10 |

| SMILES | IC50 [1] [µM] | IC50 [2] [µM] |
| --- | --- | --- |
| CC(=O)Nc1ccc(C(=O)CN2C[C@@H]3C[C@@](O)(Cc4ccccc4)C[C@@H]3C2)cc1 [Example 141, N-(4-(2-((3aR,5r,6aS)-5-benzyl-5-hydroxyhexahydrocyclo-penta[c]pyrrol-2(1H)-yl)acetyl)phenyl) acetamide] | > 10 | 10 |
| COc1cccc(C[C@]2(O)C[C@H]3CN(CC(=O)c4ccc(O)c(F)n4)C[C@H]3C2)c1 [Example 200, 1-(6-fluoro-5-hydroxypyridin-2-yl)-2-((3aR,5r,6aS)-5-hydroxy-5-(3-methoxy-benzyl)hexahydro-cyclopenta[c]pyrrol-2(1H)-yl)ethanone] | > 10 | 10 |
| C[C@@H](NC(=O)N1C[C@H]2C[C@@H](c3ccccc3)C[C@H]2C1)c1ccc(Cl)cc1 [Example 113, N-[(1R)-1-(4-chlorophenyl)ethyl]-5-phenyl-octahydrocyclopenta[c] pyrrole-2-carboxamide] | > 10 | 10 |
| COc1ccc(C)cc1NC(=O)N1C[C@@H]2C[C@@](O)(c3ccccc3C)C[C@@H]2C1 [Example 23, 5-hydroxy-N-(2-methoxy-5-methylphenyl)-5-(2-methylphenyl)-octahydrocyclopenta[c] pyrrole-2-carboxamide] | > 10 | 10 |
| O=C1Cc2cc(C(=O)CN3C[C@@H]4C[C@@](O)(Cc5ccccc5)C[C@@H]4C3)ccc2N1 [Example 147, 5-(2-((3aR,5r,6aS)-5-benzyl-5-hydroxyhexahydrocyclo-penta[c]pyrrol-2(1H)-yl)acetyl)indolin-2-one] | 0.1 to 1 | 0.352 |
| O=C(CCN1C[C@@H]2C[C@@](O)(Cc3ccccc3)C[C@@H]2C1)c1ccc(O)cc1 [Example 133, 3-((3aR,5r,6S)-5-benzyl-5-hydroxyhexahydrocyclo-penta[c]pyrrol-2(1H)-yl)-1-(4-hydroxyphenyl)propan-1-one] | 1 to 10 | 7.05 |
| O=C(Nc1ccccc1)N1C[C@@H]2C[C@@](O)(c3ccccc3)C[C@@H]2C1 [Example 25, 5-hydroxy-N,5-diphenyl-octahydrocyclopenta[c] pyrrole-2-carboxamide] | > 10 | 10 |
| COc1cccc(NC(=O)N2C[C@H]3C[C@@H](c4ccccc4)C[C@H]3C2)c1 [Example 104, N-(3-methoxyphenyl)-5-phenyl-octahydrocyclopenta[c] pyrrole-2-carboxamide] | > 10 | 10 |
| COc1cccc([C@]2(O)C[C@H]3CN(CC(=O)c4cccc(F)c4)C[C@H]3C2)c1 [Example 62, 1-(3-fluorophenyl)-2-[5-hydroxy-5-(3-methoxyphenyl)-octahydrocyclopenta[c]pyrrol-2-yl]ethan-1-one] | > 10 | 10 |
| Cc1cccc(N2C[C@@H]3C[C@@](O)(c4ccccc4)C[C@@H]3C2)n1 [Example 85, 2-(6-methylpyridin-2-yl)-5-phenyl-octahydrocyclopenta[c] pyrrol-5-ol] | > 10 | 10 |
| COC(=O)c1ccc(NC(=O)N2C[C@H]3C[C@@H](c4ccccc4)C[C@H]3C2)cc1 [Example 103, methyl 4-[({5-phenyl-octahydrocyclopenta[c]pyrrol-2-yl}carbonyl)amino]benzo-ate] | > 10 | 10 |
| Cc1cc(F)ccc1C[C@]1(O)C[C@H]2CN(CC(=O)c3ccc(O)cn3)C[C@H]2C1 [Example 242, 2-((3aR,5r,6aS)-5-(4-fluoro-2-methylbenzyl)-5-hydroxyhexahydrocyclo-penta[c]pyrrol-2(1H)-yl)-1-(5-hydroxypyridin-2-yl)ethanone] | 1 to 10 | 2.71 |
| O=C(Nc1ccccc1)N1C[C@H]2C[C@@H](c3ccccc3)C[C@H]2C1 [Example 102, N,5-diphenyl-octahydrocyclopenta[c] pyrrole-2-carboxamide] | > 10 | 10 |
| O=C(CN1C[C@@H]2C[C@@](O)(Cc3ccccc3)C[C@@H]2C1)c1ccc(-c2ccc(F)cc2)cc1 [Example 262, 2-((3aR,5r,6aS)-5-benzyl-5-hydroxyhexahydrocyclo-penta[c]pyrrol-2(1H)-yl)-1-(4′-fluoro-[1,1′-biphenyl]-4-yl)ethanone] | > 10 | 10 |
| O=C(Nc1ccc(F)cc1F)N1C[C@@H]2C[C@@](O)(c3ccccc3)C[C@@H]2C1 [Example 19, N-(2,4-difluorophenyl)-5-hydroxy-5-phenyl-octahydrocyclopenta[c] pyrrole-2-carboxamide] | > 10 | 10 |
